Laboratory results as given in ChEMBL document CHEMBL5620375, “Tetrahydrobenzo[h]quinoline derivatives as a novel chemotype for dual antileishmanial-antimalarial activity graced with antitubercular activity: Design, synthesis and biological evaluation” (Eur J Med Chem, 2023).
≈ marks a conversion by molar mass, not a printed value.

Columns and labels:
Leishmania major [1] = assay: Antileishmanial activity against Leishmania major promastigotes assessed as inhibition of parasite growth incubated for 48 hrs by alamar blue reagent based ELISA; assay type: functional, organism-based
Leishmania major [2] = assay: Antileishmanial activity against Leishmania major amastigotes assessed as inhibition of parasite growth incubated for 72 hrs by resazurin reagent based ELISA; assay type: functional, organism-based
Plasmodium berghei [3] = assay: Antimalarial activity against Plasmodium berghei ANKA infected in mouse assessed as parasitemia at 48.4 microM/Kg,po measured after 96 hrs by giemsa staining analysis relative to control; assay type: functional; conditions: at 48.4 µmol/kg
Plasmodium berghei [4] = assay: Antimalarial activity against Plasmodium berghei ANKA infected in mouse assessed as reduction in parasite growth at 48.4 microM/Kg,po measured after 96 hrs by giemsa staining analysis; assay type: functional; parameters: scale not given: the % may be the effect or the level left; conditions: at 48.4 µmol/kg
Plasmodium berghei [5] = assay: Antimalarial activity against Plasmodium berghei ANKA infected in mouse assessed as mean survival time at 48.4 microM/Kg,po measured after 96 hrs; assay type: functional
[6] = tested on: Mycobacterium tuberculosis; assay: Antitubercular activity against Mycobacterium tuberculosis H37Ra assessed as inhibition of bacterial growth by microplate alamar blue assay; assay type: functional
Leishmania major [7] = assay: Antileishmanial activity against Leishmania major promastigotes assessed as parasite survival incubated for 48 hrs by alamar blue reagent based ELISA relative to control; assay type: functional
Leishmania major [8] = assay: Antileishmanial activity against Leishmania major promastigotes assessed as parasite survival incubated for 48 hrs in presence of 20 uM of folic acid by alamar blue reagent based ELISA relative to control; assay type: functional
Leishmania major [9] = assay: Antileishmanial activity against Leishmania major promastigotes assessed as parasite survival incubated for 48 hrs in presence of 100 uM of folic acid by alamar blue reagent based ELISA relative to control; assay type: functional
Leishmania major [10] = assay: Antileishmanial activity against Leishmania major promastigotes assessed as parasite survival incubated for 48 hrs in presence of 20 uM of folinic acid by alamar blue reagent based ELISA relative to control; assay type: functional
Leishmania major [11] = assay: Antileishmanial activity against Leishmania major promastigotes assessed as parasite survival incubated for 48 hrs in presence of 100 uM of folinic acid by alamar blue reagent based ELISA relative to control; assay type: functional
Plasmodium falciparum = assay: Antimalarial activity against chloroquine-resistant Plasmodium falciparum RKL9 assessed as inhibition of parasite growth incubated for 24 hrs by giemsa staining analysis; assay type: functional, organism-based; conditions: RKL9, 24 h
[12] = Cytotoxicity against African green monkey Vero cells incubated for 72 hrs by crystal violet staining based assay; assay type: toxicity, cell-based; conditions: chlorocebus sabaeus
[13] = Selectivity index, ratio of CC50 for cytotoxicity against African green monkey Vero cells to IC50 for antimalarial activity against chloroquine-resistant Plasmodium falciparum RKL9; assay type: toxicity, cell-based; conditions: read-out: Ratio CC50/IC50
[14] = Selectivity index, ratio of CC50 for cytotoxicity against African green monkey Vero cells to IC50 for antileishmanial activity against Leishmania major; assay type: toxicity, cell-based; conditions: read-out: Ratio CC50/IC50
[15] = Selectivity index, ratio of CC50 for cytotoxicity against African green monkey Vero cells to MIC for antitubercular activity against Mycobacterium tuberculosis H37Ra; assay type: toxicity, cell-based; conditions: read-out: Selectivity Index
[16] = Acute toxicity in mouse assessed as change in body weight at 25 to 150 mg/kg,po administrated for 3 days; assay type: organism-based; conditions: in vivo, 72 h, dose 25-150 mg/kg, time 3 day
[17] = Acute toxicity in mouse assessed as signs of toxicity at 25 to 150 mg/kg,po administrated for 3 days; assay type: organism-based; conditions: in vivo, 72 h, dose 25-150 mg/kg, time 3 day
[18] = tested on: Mycobacterium tuberculosis; assay: Antitubercular activity against XDR Mycobacterium tuberculosis RCMB 2674 assessed as inhibition of bacterial growth by microplate alamar blue assay; assay type: functional
Leishmania major [19] = assay: Antileishmanial activity against Leishmania major promastigotes assessed as parasite survival at 100 uM incubated for 48 hrs by alamar blue reagent based ELISA relative to control
Leishmania major [20] = assay: Antileishmanial activity against Leishmania major promastigotes assessed as parasite survival at 100 uM incubated for 48 hrs in presence of 100 uM of folic acid by alamar blue reagent based ELISA relative to control

N#Cc1c(-c2ccccc2Br)c2c([nH]c1=O)-c1ccccc1CC2
IC50 (Leishmania major [1]): 2.11 µM | IC50 (Leishmania major [2]): 3.83 µM | Activity (Plasmodium berghei [3]): 36% | Activity (Plasmodium berghei [4]): 60% | Survival (Plasmodium berghei [5]): 7.33 days | MIC [6]: 10.3 µM (≈ 3.9 µg/mL)

CC(=O)N1CCC(C(=O)NCc2ccc3c(c2)-c2[nH]c(=O)c(C#N)c(-c4cc(Cl)ccc4Cl)c2CC3)CC1
IC50 (Leishmania major [1]): 0.409 µM | IC50 (Leishmania major [2]): 0.502 µM | Survival (Leishmania major [7]): 24% | Survival (Leishmania major [8]): 78% | Survival (Leishmania major [9]): 88% | Survival (Leishmania major [10]): 82% | Survival (Leishmania major [11]): 94% | Activity (Plasmodium berghei [3]): 3% | Activity (Plasmodium berghei [4]): 96.67% | IC50 (Plasmodium falciparum): 0.039 µM | MIC [6]: 28.4 µM (≈ 15.6 µg/mL) | CC50 at 72 h [12]: 455 µM | selectivity ratio [13]: 11800 | selectivity ratio [14]: 1110 | selectivity ratio [15]: 16 | Activity [16]: Non-Toxic | Activity [17]: Non-Toxic

COc1cc(-c2c3c([nH]c(=O)c2C#N)-c2ccccc2CC3)cc(OC)c1OC
IC50 (Leishmania major [1]): 2.52 µM | IC50 (Leishmania major [2]): 3.68 µM | Activity (Plasmodium berghei [3]): 8% | Activity (Plasmodium berghei [4]): 91.11% | Survival (Plasmodium berghei [5]): 12.4 days | IC50 (Plasmodium falciparum): 0.096 µM | MIC [6]: 20.1 µM (≈ 7.81 µg/mL)

N#Cc1c(-c2cccs2)c2c([nH]c1=O)-c1ccccc1CC2
IC50 (Leishmania major [1]): 2.64 µM | IC50 (Leishmania major [2]): 4.86 µM | Activity (Plasmodium berghei [3]): 2% | Activity (Plasmodium berghei [4]): 97.78% | IC50 (Plasmodium falciparum): 0.021 µM | MIC [6]: 12.8 µM (≈ 3.9 µg/mL) | Activity [16]: Non-Toxic | Activity [17]: Non-Toxic

COc1ccc(-c2c3c([nH]c(=O)c2C#N)-c2ccccc2CC3)cc1OC
IC50 (Leishmania major [1]): 2.24 µM | IC50 (Leishmania major [2]): 4.68 µM | Activity (Plasmodium berghei [3]): 38% | Activity (Plasmodium berghei [4]): 57.78% | Survival (Plasmodium berghei [5]): 8.66 days | MIC [6]: 10.9 µM (≈ 3.9 µg/mL)

COc1ccc(OC)c(-c2c3c([nH]c(=O)c2C#N)-c2ccccc2CC3)c1
IC50 (Leishmania major [1]): 2.33 µM | IC50 (Leishmania major [2]): 2.98 µM | Activity (Plasmodium berghei [3]): 5% | Activity (Plasmodium berghei [4]): 94.44% | IC50 (Plasmodium falciparum): 0.089 µM | MIC [6]: 5.44 µM (≈ 1.95 µg/mL) | MIC [18]: 175 µM (≈ 62.6 µg/mL)

N#Cc1c(-c2ccc(Cl)cc2Cl)c2c([nH]c1=O)-c1ccccc1CC2
IC50 (Leishmania major [1]): 5.3 µM | IC50 (Leishmania major [2]): 6 µM | Activity (Plasmodium berghei [3]): 32% | Activity (Plasmodium berghei [4]): 64.44% | Survival (Plasmodium berghei [5]): 4.5 days | MIC [6]: 5.31 µM (≈ 1.95 µg/mL) | MIC [18]: > 342 µM

CC(=O)N1CCC(C(=O)NCc2ccc3c(c2)-c2[nH]c(=O)c(C#N)c(-c4cc(C(F)(F)F)ccc4Cl)c2CC3)CC1
IC50 (Leishmania major [1]): 1.24 µM | IC50 (Leishmania major [2]): 3.26 µM | Activity (Plasmodium berghei [3]): 56% | Activity (Plasmodium berghei [4]): 37.78% | Survival (Plasmodium berghei [5]): 5.66 days | MIC [6]: 53.6 µM (≈ 31.2 µg/mL)

COc1ccc(-c2c3c([nH]c(=O)c2C#N)-c2ccccc2CC3)cc1O
IC50 (Leishmania major [1]): 1.4 µM | IC50 (Leishmania major [2]): 3.7 µM | Activity (Plasmodium berghei [3]): 33% | Activity (Plasmodium berghei [4]): 63.33% | Survival (Plasmodium berghei [5]): 7.33 days | MIC [6]: 5.66 µM (≈ 1.95 µg/mL) | MIC [18]: 182 µM (≈ 62.6 µg/mL)

Cc1cccc(-c2c3c([nH]c(=O)c2C#N)-c2ccccc2CC3)c1
IC50 (Leishmania major [1]): 3.46 µM | IC50 (Leishmania major [2]): 5.58 µM | Activity (Plasmodium berghei [3]): 18% | Activity (Plasmodium berghei [4]): 80% | Survival (Plasmodium berghei [5]): 9.33 days | MIC [6]: 100 µM (≈ 31.2 µg/mL)

COc1cccc(-c2c3c([nH]c(=O)c2C#N)-c2ccccc2CC3)c1
IC50 (Leishmania major [1]): 4.15 µM | IC50 (Leishmania major [2]): 4.88 µM | Activity (Plasmodium berghei [3]): 11% | Activity (Plasmodium berghei [4]): 87.78% | Survival (Plasmodium berghei [5]): 10.66 days | MIC [6]: 23.8 µM (≈ 7.81 µg/mL)

COc1ccccc1-c1c2c([nH]c(=O)c1C#N)-c1ccccc1CC2
IC50 (Leishmania major [1]): 5.49 µM | IC50 (Leishmania major [2]): 6.29 µM | Activity (Plasmodium berghei [3]): 42% | Activity (Plasmodium berghei [4]): 53.33% | Survival (Plasmodium berghei [5]): 6.5 days | MIC [6]: 2.98 µM (≈ 0.979 µg/mL) | MIC [18]: 23.8 µM (≈ 7.82 µg/mL) | CC50 at 72 h [12]: 381 µM | selectivity ratio [14]: 60.6 | selectivity ratio [15]: 127

COc1ccc(-c2c3c([nH]c(=O)c2C#N)-c2ccccc2CC3)cc1
IC50 (Leishmania major [1]): 3.9 µM | IC50 (Leishmania major [2]): 4.7 µM | Activity (Plasmodium berghei [3]): 26% | Activity (Plasmodium berghei [4]): 71.11% | Survival (Plasmodium berghei [5]): 9.66 days | MIC [6]: 11.9 µM (≈ 3.9 µg/mL)

COc1cc(-c2c3c([nH]c(=O)c2C#N)-c2ccccc2CC3)ccc1O
IC50 (Leishmania major [1]): 0.577 µM | IC50 (Leishmania major [2]): 0.695 µM | Survival (Leishmania major [7]): 22% | Survival (Leishmania major [8]): 76% | Survival (Leishmania major [9]): 85% | Survival (Leishmania major [10]): 78% | Survival (Leishmania major [11]): 89% | Activity (Plasmodium berghei [3]): 2% | Activity (Plasmodium berghei [4]): 97.78% | IC50 (Plasmodium falciparum): 0.019 µM | MIC [6]: 90.7 µM (≈ 31.2 µg/mL) | CC50 at 72 h [12]: 363 µM | selectivity ratio [13]: 18300 | selectivity ratio [14]: 629 | selectivity ratio [15]: 4 | Activity [16]: Non-Toxic | Activity [17]: Non-Toxic

N#Cc1c(-c2ccccc2[N+](=O)[O-])c2c([nH]c1=O)-c1ccccc1CC2
IC50 (Leishmania major [1]): 4.22 µM | IC50 (Leishmania major [2]): 5.63 µM | Activity (Plasmodium berghei [3]): 17% | Activity (Plasmodium berghei [4]): 81.11% | Survival (Plasmodium berghei [5]): 8.83 days

N#Cc1c(O)nc2c(c1-c1cccc([N+](=O)[O-])c1)CCc1ccccc1-2
IC50 (Leishmania major [1]): 2.89 µM | IC50 (Leishmania major [2]): 3.97 µM | Activity (Plasmodium berghei [3]): 28% | Activity (Plasmodium berghei [4]): 68.89% | Survival (Plasmodium berghei [5]): 7.66 days | MIC [6]: 5.67 µM (≈ 1.95 µg/mL) | MIC [18]: 91.1 µM (≈ 31.3 µg/mL)

CCN(CC)CCCC(C)Nc1ccnc2cc(Cl)ccc12.O=P(O)(O)O.O=P(O)(O)O (configuration not stated) [CHLOROQUINE PHOSPHATE]
Activity (Plasmodium berghei [3]): 0% | Activity (Plasmodium berghei [4]): 100% | Survival (Plasmodium berghei [5]): 13.12 days

NNC(=O)c1ccncc1 [ISONIAZID]
MIC [6]: 0.875 µM (≈ 0.12 µg/mL)

CCc1nc(N)nc(N)c1-c1ccc(Cl)cc1 [PYRIMETHAMINE]
Activity (Plasmodium berghei [3]): 0% | Activity (Plasmodium berghei [4]): 100% | IC50 (Plasmodium falciparum): 0.013 µM

COc1cc(Cc2cnc(N)nc2N)cc(OC)c1OC [TRIMETHOPRIM]
survival at 100 µM (Leishmania major [19]): 71% | survival at 100 µM (Leishmania major [20]): 99%
